Here are results for 18 compounds from ChEMBL document CHEMBL4495565, “Cytopathic SARS-Cov2 screening on VERO-E6 cells in a large repurposing effort” (2020).

Each structure is given as a SMILES string. pIC50: −log10 of the molar value. Where a name gives a salt, the structure may show the parent alone.

Data set [1] in a line: in vitro. Conditions: chlorocebus sabaeus.
Another data set concerns SARS-CoV-2. Description: microbe, parasite or virus in culture. It counts as functional, organism-based, Chlorocebus sabaeus, Vero C1008. Conditions: Severe acute respiratory syndrome coronavirus 2, Vero C1008, 48 h.
Data set [2] can be described thus: in vitro. As to conditions: chlorocebus sabaeus. This is another data set of the same source.
Where [3] appears, read: VERO-E6 cells (Vero C1008), uninfected, CC50.
[4] abbreviates: VERO-E6 cells, Selectivity index.

In general, pIC50 refers to the IC50 on a negative log10 scale, so that one unit is a factor of ten. The low end stands for a large IC50, the high end for a small IC50. `Cc1cnc(Nc2ccc(F)cc2Cl)nc1-c1c[nH]c(C(=O)N[C@H](CO)c2cccc(Cl)c2)c1` gave a CC50 at 48 h in the data set “in vitro [1]” (setting [3]) of 1.92 µM. Also, the pIC50 in the data set with SARS-CoV-2 is 5.26. Besides, in “in vitro [2]” (setting [4]), the selectivity ratio was determined as 0.35.

With `COc1ccc(C[C@H]2NC[C@H](O)[C@H]2OC(C)=O)cc1` [ANISOMYCIN], in the data set “in vitro [1]” (vero c1008, CC50), the CC50 at 48 h stood at 0.1 µM. In the data set on SARS-CoV-2, this compound had a negative logarithm of the IC50 (pIC50) of 7.05. The selectivity ratio in “in vitro [2]” (setting [4]) stood at 1.11.

In turn, `Nc1ncnc2c1c(-c1cnc3[nH]ccc3c1)nn2C1CCCC1` registered a CC50 at 48 h in the data set “in vitro [1]” (setting [3]) of 8.95 µM. The pIC50 in the data set with SARS-CoV-2 was 4.93. Further, in “in vitro [2]” (setting [4]), the selectivity ratio stood at 0.76.

Regarding `N#Cc1cc2c(OCC(O)CN3CCN(C(c4ccccc4)c4ccccc4)CC3)cccc2[nH]1` (racemic; form 1), in the data set “in vitro [1]” (setting [3]), the CC50 at 48 h was 12.7 µM. In the data set with SARS-CoV-2, the pIC50 was 4.59. Also, in the data set “in vitro [2]” (setting [4]), the selectivity ratio was found to be 0.49.

In turn, `O[C@@H](COc1cccc2ncccc12)CN1CCN([C@@H]2c3ccccc3[C@@H]3[C@H](c4ccccc42)C3(F)F)CC1` [ZOSUQUIDAR TRIHYDROCHLORIDE] registered a CC50 at 48 h in “in vitro [1]” (vero c1008, CC50) of 9.11 µM. In addition, in the data set with SARS-CoV-2, the negative logarithm of the IC50 (pIC50) is 5.08. Moreover, the selectivity ratio in the data set “in vitro [2]” (vero c1008, Selectivity index) was found to be 1.08.

For `CC(C)C[C@H](NC(=O)[C@@H](NC(=O)c1cccc(-c2ccccc2)n1)[C@@H](C)O)B(O)O` [DELANZOMIB], in “in vitro [1]” (setting [3]), the CC50 at 48 h was 0.46 µM. Besides, the negative logarithm of the IC50 (pIC50) in the data set with SARS-CoV-2 is 5.89. Moreover, in the data set “in vitro [2]” (setting [4]), the selectivity ratio came out at 0.35.

`COCCNCc1ccc(-c2cc3nccc(Oc4ccc(NC(=S)NC(=O)Cc5ccc(F)cc5)cc4F)c3s2)nc1` [GLESATINIB] came in with a CC50 at 48 h in “in vitro [1]” (setting [3]) of 0.64 µM. For the same compound, the negative logarithm of the IC50 (pIC50) in the data set on SARS-CoV-2 is 5.98. Besides, in the data set “in vitro [2]” (setting [4]), the selectivity ratio turned out to be 0.62.

`Cc1[nH]c(/C=C2\C(=O)Nc3ccc(S(=O)(=O)N(C)c4cccc(Cl)c4)cc32)c(C)c1C(=O)N1CCN(C)CC1` yielded a CC50 at 48 h in the data set “in vitro [1]” (setting [3]) of 10.4 µM. This compound showed a pIC50 in the data set on SARS-CoV-2 of 4.96. Besides, the selectivity ratio in the data set “in vitro [2]” (setting [4]) was found to be 0.96.

In the data set “in vitro [1]” (setting [3]), `CCS(=O)(=O)c1ccc(CC(=O)Nc2cc(Cl)c(-c3ccccc3OC(F)(F)F)c(Cl)c2)cc1` returned a CC50 at 48 h of 12.1 µM. This compound also gave a negative logarithm of the IC50 (pIC50) in the data set on SARS-CoV-2 of 4.68. In the data set “in vitro [2]” (setting [4]), the selectivity ratio amounted to 0.58.

The compound `COc1ccc(-c2c[nH]c3nccc(-c4ccsc4)c23)c(OC)c1` yielded a CC50 at 48 h in the data set “in vitro [1]” (setting [3]) of 0.82 µM. This compound also showed a pIC50 in the data set with SARS-CoV-2 of 4.80. Besides, the selectivity ratio in “in vitro [2]” (setting [4]) was 0.05.

For `COc1ccc(CNc2nc(N(CCO)CCO)nc3c2ncn3C(C)C)cc1`, the CC50 at 48 h in the data set “in vitro [1]” (setting [3]) was 6.49 µM. For the same compound, in the data set on SARS-CoV-2, the negative-log IC50 (pIC50) was 5.10. In addition, the selectivity ratio in the data set “in vitro [2]” (setting [4]) came out at 0.82.

Turning to `CC(C)[C@H]1c2ccc(F)cc2CC[C@@]1(CCN(C)CCCc1nc2ccccc2[nH]1)OC(=O)C1CC1`, the CC50 at 48 h in “in vitro [1]” (setting [3]) amounted to 8.13 µM. The same compound showed a pIC50 in the data set with SARS-CoV-2 of 5.09. Moreover, the selectivity ratio in “in vitro [2]” (setting [4]) worked out at 0.99.

`Nc1nccc2c1ncn2[C@@H]1C=C(CO)[C@@H](O)[C@H]1O` displayed a CC50 at 48 h in “in vitro [1]” (setting [3]) of 0.3 µM. The negative logarithm of the IC50 (pIC50) with SARS-CoV-2 is 5.68. In addition, the selectivity ratio in the data set “in vitro [2]” (setting [4]) turned out to be 0.14.

Take `O=C(C1CC1)N1CC[C@@H](Cc2n[nH]c(=O)n2-c2ccc(-c3ccc4occc4c3)cc2)C1`: in “in vitro [1]” (vero c1008, CC50), the CC50 at 48 h was more than 33 µM. In the data set with SARS-CoV-2, this compound showed a negative-log IC50 (pIC50) of 4.77. The selectivity ratio in the data set “in vitro [2]” (vero c1008, Selectivity index) came to 1.94.

For `OCCCNc1cc(-c2ccnc(Nc3cccc(Cl)c3)n2)ccn1`, the CC50 at 48 h in the data set “in vitro [1]” (setting [3]) is 8.17 µM. In the data set with SARS-CoV-2, this compound gave a negative-log IC50 (pIC50) of 5.10. Moreover, the selectivity ratio in the data set “in vitro [2]” (setting [4]) is 1.03.

The compound `COc1cc(C[C@H]2c3cc(OC)c(OC)cc3CCN2C)c(Oc2cc3c(cc2OC)-c2c(OC)c(OC)cc4c2[C@H](C3)N(C)CC4)cc1OC` [THALICARPINE] came in with a CC50 at 48 h in “in vitro [1]” (setting [3]) of more than 33 µM. In the data set on SARS-CoV-2, this compound gave a pIC50 of 5.41. Besides, in the data set “in vitro [2]” (setting [4]), the selectivity ratio was determined as 8.53.

Regarding `COC(=O)C[C@@](O)(CCC(C)(C)O)C(=O)O[C@@H]1C(OC)=C[C@]23CCCN2CCc2cc4c(cc2[C@@H]13)OCO4`, the CC50 at 48 h in “in vitro [1]” (setting [3]) amounted to 1.94 µM. For the same compound, the pIC50 in the data set with SARS-CoV-2 was 6.10. Also, the selectivity ratio in “in vitro [2]” (setting [4]) was found to be 2.46.

In the data set “in vitro [1]” (setting [3]), `Cc1cc2c(F)c(Oc3ncnn4cc(OC[C@@H](C)OC(=O)[C@H](C)N)c(C)c34)ccc2[nH]1` [BRIVANIB ALANINATE] yielded a CC50 at 48 h of 2.58 µM. In addition, in the data set on SARS-CoV-2, the pIC50 is 5.19. Further, the selectivity ratio in “in vitro [2]” (setting [4]) was 0.4.
